From ChEMBL document CHEMBL1811886 (J Med Chem, 2011)

Key:
Histamine H3 receptor [1] = target: T1, Histamine H3 receptor (Homo sapiens, UniProt Q9Y5N1); assay: Displacement of [3H]NAMH from human histamine H3 receptor expressed in CHO cells; format: cell-based
Histamine H3 receptor [2] = target: Histamine H3 receptor (Rattus norvegicus, UniProt Q9QYN8); assay: Displacement of [3H]NAMH from rat histamine H3 receptor expressed in CHO cells; format: cell-based
Histamine H3 receptor [3] = target: T1, Histamine H3 receptor; assay: Antagonist activity against human histamine H3 receptor assessed as inhibition of R-alpha-methylhistamine induced [35S]GTPgammaS binding; format: functional
[4] = target: Histamine H2 receptor (Homo sapiens) (UniProt P25021); assay: Inhibition of human histamine H2 receptor at 10 uM
Sequence of Histamine H2 receptor (Homo sapiens) (P25021 whole entry): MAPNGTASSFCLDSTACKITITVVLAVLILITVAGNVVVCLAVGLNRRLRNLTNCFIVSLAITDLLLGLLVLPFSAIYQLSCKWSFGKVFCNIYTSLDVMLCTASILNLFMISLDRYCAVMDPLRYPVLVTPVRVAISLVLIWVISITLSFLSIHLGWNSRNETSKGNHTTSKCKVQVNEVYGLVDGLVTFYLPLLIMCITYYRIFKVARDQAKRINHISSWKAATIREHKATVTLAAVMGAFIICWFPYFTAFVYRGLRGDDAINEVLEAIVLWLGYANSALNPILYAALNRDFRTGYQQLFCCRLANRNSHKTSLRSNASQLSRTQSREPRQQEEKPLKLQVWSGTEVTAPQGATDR

[5] = target: Histamine H1 receptor (Homo sapiens) (UniProt P35367); assay: Inhibition of human histamine H1 receptor at 10 uM
Sequence of Histamine H1 receptor (Homo sapiens) (P35367 whole entry): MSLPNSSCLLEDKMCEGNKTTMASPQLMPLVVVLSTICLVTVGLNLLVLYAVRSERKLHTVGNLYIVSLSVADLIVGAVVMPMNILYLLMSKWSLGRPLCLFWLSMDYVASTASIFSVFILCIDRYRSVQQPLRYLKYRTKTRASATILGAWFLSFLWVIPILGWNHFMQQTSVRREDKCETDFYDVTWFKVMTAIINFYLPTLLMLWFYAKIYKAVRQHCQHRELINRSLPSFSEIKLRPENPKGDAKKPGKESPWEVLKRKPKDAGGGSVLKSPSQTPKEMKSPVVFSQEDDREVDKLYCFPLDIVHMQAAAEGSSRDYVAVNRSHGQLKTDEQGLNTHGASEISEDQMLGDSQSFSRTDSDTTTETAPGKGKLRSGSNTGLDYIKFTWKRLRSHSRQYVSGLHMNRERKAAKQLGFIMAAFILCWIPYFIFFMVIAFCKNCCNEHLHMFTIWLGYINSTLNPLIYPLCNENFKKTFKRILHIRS

[6] = target: Histamine H4 receptor (Homo sapiens) (UniProt Q9H3N8); assay: Inhibition of human histamine H4 receptor at 10 uM
Sequence of Histamine H4 receptor (Homo sapiens) (Q9H3N8 whole entry): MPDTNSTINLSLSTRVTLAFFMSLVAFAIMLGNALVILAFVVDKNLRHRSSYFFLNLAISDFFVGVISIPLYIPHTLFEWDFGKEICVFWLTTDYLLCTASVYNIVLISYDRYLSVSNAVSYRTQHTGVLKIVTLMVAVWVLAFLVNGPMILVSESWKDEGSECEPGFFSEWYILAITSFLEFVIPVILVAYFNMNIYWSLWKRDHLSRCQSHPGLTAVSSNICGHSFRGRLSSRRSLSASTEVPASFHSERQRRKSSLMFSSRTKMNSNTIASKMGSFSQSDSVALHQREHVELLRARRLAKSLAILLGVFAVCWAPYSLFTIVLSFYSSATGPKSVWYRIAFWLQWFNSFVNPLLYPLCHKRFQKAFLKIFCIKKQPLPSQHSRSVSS

[7] = AUC in fasted Sprague-Dawley rat at 3 mg/kg, po after 6 to 24 hrs by LC-MS/MS analysis; format: ADME, organism-based; design: dose 3 mg/kg, route oral; conditions: plasma
Brain = assay: Clearance in Sprague-Dawley rat brain at 10 mg/kg, po administered as single dose after 24 hrs by LC-MS/MS analysis; format: ADME, organism-based; design: dose 10 mg/kg, route oral; conditions: in vivo
Lung = assay: Clearance in Sprague-Dawley rat lung at 10 mg/kg, po administered as single dose after 24 hrs by LC-MS/MS analysis; format: ADME, organism-based; design: dose 10 mg/kg, route oral; conditions: in vivo
[8] = Clearance in cynomolgus monkey at 1 mg/kg, iv after 6 to 24 hrs by LC-MS/MS analysis; format: ADME, organism-based, Macaca fascicularis; design: dose 1 mg/kg, route intravenous; conditions: in vivo
Spleen = assay: Clearance in Sprague-Dawley rat spleen at 10 mg/kg, po administered as single dose after 24 hrs by LC-MS/MS analysis; format: ADME, organism-based; design: dose 10 mg/kg, route oral; conditions: in vivo
[9] = Metabolic stability of compound in dog liver microsomes assessed as half life; format: ADME, Canis lupus familiaris, Microsome
[10] = Oral bioavailability in Beagle dog at 3 mg/kg after 6 to 24 hrs by LC-MS/MS analysis; format: ADME, organism-based, Canis lupus familiaris; conditions: in vivo
Cytochrome P450 2C19 = Cytochrome P450 2C19 (Homo sapiens, UniProt P33261); assay: Inhibition of CYP2C19; format: ADME
Sequence of Cytochrome P450 2C19 (P33261 whole entry): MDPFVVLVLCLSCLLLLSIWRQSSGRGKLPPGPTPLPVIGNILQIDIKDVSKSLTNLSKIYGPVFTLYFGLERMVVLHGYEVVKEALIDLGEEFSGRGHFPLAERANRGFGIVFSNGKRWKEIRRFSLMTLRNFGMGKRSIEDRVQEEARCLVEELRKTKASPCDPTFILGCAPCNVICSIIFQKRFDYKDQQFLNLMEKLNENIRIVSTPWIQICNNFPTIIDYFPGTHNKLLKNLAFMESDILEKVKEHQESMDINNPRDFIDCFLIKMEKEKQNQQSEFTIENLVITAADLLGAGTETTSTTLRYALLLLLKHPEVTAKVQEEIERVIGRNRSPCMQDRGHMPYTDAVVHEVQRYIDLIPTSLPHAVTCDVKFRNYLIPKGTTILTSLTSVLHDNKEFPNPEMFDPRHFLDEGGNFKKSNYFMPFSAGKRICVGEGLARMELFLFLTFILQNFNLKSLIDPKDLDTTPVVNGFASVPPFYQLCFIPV

[11] = Terminal half life in Beagle dog at 1 mg/kg, iv after 6 to 24 hrs by LC-MS/MS analysis; format: ADME, organism-based, Canis lupus familiaris; design: dose 1 mg/kg, route intravenous; conditions: in vivo, read-out: beta t1/2 (converted)
[12] = Cmax in cynomolgus monkey at 1 mg/kg, po after 6 to 24 hrs by LC-MS/MS analysis; format: ADME, organism-based, Macaca fascicularis; design: dose 1 mg/kg, route oral; conditions: in vivo
[13] = Plasma protein binding in rat after 1 hr by LC/MS/MS analysis; format: ADME, cell-free; conditions: read-out: PPB (converted)
[14] = Systemic clearance in fasted Sprague-Dawley rat at 1 mg/kg, iv after 6 to 24 hrs by LC-MS/MS analysis; format: ADME, organism-based; design: dose 1 mg/kg, route intravenous; conditions: in vivo
[15] = Oral bioavailability in cynomolgus monkey at 1 mg/kg after 6 to 24 hrs by LC-MS/MS analysis; format: ADME, organism-based, Macaca fascicularis; conditions: in vivo
[16] = Terminal half life in cynomolgus monkey at 1 mg/kg, po after 6 to 24 hrs by LC-MS/MS analysis; format: ADME, organism-based, Macaca fascicularis; design: dose 1 mg/kg, route oral; conditions: in vivo, read-out: beta t1/2 (converted)
Cytochrome P450 1A2 = Cytochrome P450 1A2 (Homo sapiens, UniProt P05177); assay: Inhibition of CYP1A2; format: ADME
Sequence of Cytochrome P450 1A2 (P05177 whole entry): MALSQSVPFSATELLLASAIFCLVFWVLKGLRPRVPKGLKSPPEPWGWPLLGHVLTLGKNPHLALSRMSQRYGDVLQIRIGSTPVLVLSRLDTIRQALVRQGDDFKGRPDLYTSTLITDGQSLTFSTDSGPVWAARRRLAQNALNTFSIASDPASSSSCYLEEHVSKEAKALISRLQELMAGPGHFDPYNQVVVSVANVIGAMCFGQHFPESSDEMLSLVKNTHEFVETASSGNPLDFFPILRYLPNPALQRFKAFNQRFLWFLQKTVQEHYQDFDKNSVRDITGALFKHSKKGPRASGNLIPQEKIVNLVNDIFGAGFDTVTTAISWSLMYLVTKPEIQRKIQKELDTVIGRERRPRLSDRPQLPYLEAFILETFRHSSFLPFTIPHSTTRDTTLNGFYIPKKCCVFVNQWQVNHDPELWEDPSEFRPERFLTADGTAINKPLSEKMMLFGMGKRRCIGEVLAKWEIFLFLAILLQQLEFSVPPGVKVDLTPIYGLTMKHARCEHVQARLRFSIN

Kidney = assay: Clearance in Sprague-Dawley rat kidney at 10 mg/kg, po administered as single dose after 24 hrs by LC-MS/MS analysis; format: ADME, organism-based; design: dose 10 mg/kg, route oral; conditions: in vivo
[17] = Metabolic stability of compound in mouse liver microsomes assessed as compound remaining at 40 mins; format: ADME, Microsome; conditions: read-out: Stability
[18] = Volume of distribution in Beagle dog at 1 mg/kg, iv after 6 to 24 hrs by LC-MS/MS analysis; format: ADME, organism-based, Canis lupus familiaris; design: dose 1 mg/kg, route intravenous; conditions: in vivo
[19] = Metabolic stability of compound in rat liver microsomes assessed as compound remaining at 40 mins; format: ADME, Microsome; conditions: read-out: Stability
[20] = Fraction unbound in rat brain; format: ADME, tissue-based
[21] = Terminal half life in fasted Sprague-Dawley rat at 3 mg/kg, po after 6 to 24 hrs by LC-MS/MS analysis; format: ADME, organism-based; design: dose 3 mg/kg, route oral; conditions: in vivo, read-out: beta t1/2 (converted)
[22] = Volume of distribution in fasted Sprague-Dawley rat at 1 mg/kg, iv after 6 to 24 hrs by LC-MS/MS analysis; format: ADME, organism-based; design: dose 1 mg/kg, route intravenous; conditions: in vivo
[23] = Ratio of drug uptake in brain to plasma of fasted Sprague-Dawley rat at 1 mg/kg, iv after 6 to 24 hrs by LC-MS/MS analysis; format: ADME, organism-based; design: dose 1 mg/kg, route intravenous; conditions: read-out: BPR
Cytochrome P450 3A4 = Cytochrome P450 3A4 (Homo sapiens, UniProt P08684); assay: Inhibition of CYP3A4; format: ADME
Sequence of Cytochrome P450 3A4 (P08684 whole entry): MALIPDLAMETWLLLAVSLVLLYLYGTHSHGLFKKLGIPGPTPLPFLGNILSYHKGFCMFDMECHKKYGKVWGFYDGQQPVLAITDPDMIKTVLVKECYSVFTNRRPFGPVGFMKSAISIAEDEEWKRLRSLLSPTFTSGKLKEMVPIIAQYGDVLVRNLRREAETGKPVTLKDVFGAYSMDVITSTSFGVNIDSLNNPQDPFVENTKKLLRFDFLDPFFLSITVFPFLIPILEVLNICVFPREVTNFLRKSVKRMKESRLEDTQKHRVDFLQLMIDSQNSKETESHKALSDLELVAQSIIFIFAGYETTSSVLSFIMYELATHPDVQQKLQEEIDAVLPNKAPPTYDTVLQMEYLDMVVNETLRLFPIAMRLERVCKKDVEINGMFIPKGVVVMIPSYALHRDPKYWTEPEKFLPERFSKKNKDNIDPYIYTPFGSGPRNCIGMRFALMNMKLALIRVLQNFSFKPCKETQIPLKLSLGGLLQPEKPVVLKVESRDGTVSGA

[24] = Metabolic stability of compound in dog liver microsomes assessed as compound remaining at 40 mins; format: ADME, Canis lupus familiaris, Microsome; conditions: read-out: Stability
Heart = assay: Clearance in Sprague-Dawley rat heart at 10 mg/kg, po administered as single dose after 24 hrs by LC-MS/MS analysis; format: ADME, organism-based; design: dose 10 mg/kg, route oral; conditions: in vivo
[25] = Ratio of drug uptake in brain to plasma of Beagle dog at 5 mg/kg, po after 6 to 24 hrs by LC-MS/MS analysis; format: ADME, organism-based, Canis lupus familiaris; design: dose 5 mg/kg, route oral; conditions: read-out: BPR
Cytochrome P450 2C9 = Cytochrome P450 2C9 (Homo sapiens, UniProt P11712); assay: Inhibition of CYP2C9; format: ADME
Sequence of Cytochrome P450 2C9 (P11712 whole entry): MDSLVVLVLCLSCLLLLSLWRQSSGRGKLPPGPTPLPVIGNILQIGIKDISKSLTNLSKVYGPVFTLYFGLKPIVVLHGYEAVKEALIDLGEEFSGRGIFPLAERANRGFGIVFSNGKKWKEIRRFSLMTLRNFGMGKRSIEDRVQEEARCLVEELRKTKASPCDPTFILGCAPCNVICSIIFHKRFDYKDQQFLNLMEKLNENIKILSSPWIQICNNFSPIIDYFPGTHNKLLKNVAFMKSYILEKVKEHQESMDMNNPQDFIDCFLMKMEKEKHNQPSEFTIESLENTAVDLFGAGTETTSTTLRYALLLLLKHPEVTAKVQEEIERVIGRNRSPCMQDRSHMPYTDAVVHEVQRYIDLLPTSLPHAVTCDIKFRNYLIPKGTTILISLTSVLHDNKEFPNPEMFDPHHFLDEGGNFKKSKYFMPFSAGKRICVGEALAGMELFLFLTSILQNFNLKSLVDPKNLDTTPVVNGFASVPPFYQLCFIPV

Plasma = assay: Clearance in Sprague-Dawley rat plasma at 10 mg/kg, po administered as single dose after 24 hrs by LC-MS/MS analysis; format: ADME, organism-based; design: dose 10 mg/kg, route oral; conditions: in vivo
[26] = Cmax in fasted Sprague-Dawley rat at 3 mg/kg, po after 6 to 24 hrs by LC-MS/MS analysis; format: ADME, organism-based; design: dose 3 mg/kg, route oral; conditions: in vivo
[27] = Oral bioavailability in fasted Sprague-Dawley rat at 3 mg/kg, po after 6 to 24 hrs by LC-MS/MS analysis; format: ADME, organism-based; conditions: in vivo
[28] = Metabolic stability of compound in rat liver microsomes assessed as half life; format: ADME, Microsome
Cytochrome P450 2D6 = Cytochrome P450 2D6 (Homo sapiens, UniProt P10635); assay: Inhibition of CYP2D6; format: ADME
Sequence of Cytochrome P450 2D6 (P10635 whole entry): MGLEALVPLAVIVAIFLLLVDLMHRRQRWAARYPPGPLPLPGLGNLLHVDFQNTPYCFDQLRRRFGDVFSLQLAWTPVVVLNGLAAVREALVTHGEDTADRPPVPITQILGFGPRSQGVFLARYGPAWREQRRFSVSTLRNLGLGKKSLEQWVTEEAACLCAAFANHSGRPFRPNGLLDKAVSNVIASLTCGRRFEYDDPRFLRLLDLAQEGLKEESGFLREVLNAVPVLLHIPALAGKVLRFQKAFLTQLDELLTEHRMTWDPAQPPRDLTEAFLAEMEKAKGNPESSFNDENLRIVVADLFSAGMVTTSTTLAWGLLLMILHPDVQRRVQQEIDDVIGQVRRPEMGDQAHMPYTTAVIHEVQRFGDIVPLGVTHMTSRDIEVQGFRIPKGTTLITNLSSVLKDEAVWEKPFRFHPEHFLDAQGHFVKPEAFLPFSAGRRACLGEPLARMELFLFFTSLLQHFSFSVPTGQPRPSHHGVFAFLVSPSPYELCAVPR

[29] = Volume of distribution in cynomolgus monkey at 1 mg/kg, iv after 6 to 24 hrs by LC-MS/MS analysis; format: ADME, organism-based, Macaca fascicularis; design: dose 1 mg/kg, route intravenous; conditions: in vivo
[30] = Clearance in Beagle dog at 1 mg/kg, iv after 6 to 24 hrs by LC-MS/MS analysis; format: ADME, organism-based, Canis lupus familiaris; design: dose 1 mg/kg, route intravenous; conditions: in vivo
Liver = assay: Clearance in Sprague-Dawley rat liver at 10 mg/kg, po administered as single dose after 24 hrs by LC-MS/MS analysis; format: ADME, organism-based; design: dose 10 mg/kg, route oral; conditions: in vivo
[31] = Metabolic stability of compound in human liver microsomes assessed as half life; format: ADME, Microsome
[32] = Terminal half life in cynomolgus monkey at 1 mg/kg, iv after 6 to 24 hrs by LC-MS/MS analysis; format: ADME, organism-based, Macaca fascicularis; design: dose 1 mg/kg, route intravenous; conditions: in vivo, read-out: beta t1/2 (converted)
Canis familiaris = assay: Cmax in Beagle dog at 3 mg/kg, po after 6 to 24 hrs by LC-MS/MS analysis; format: ADME, organism-based, Canis lupus familiaris; design: dose 3 mg/kg, route oral; conditions: in vivo
[33] = Terminal half life in Beagle dog at 3 mg/kg, po after 6 to 24 hrs by LC-MS/MS analysis; format: ADME, organism-based, Canis lupus familiaris; design: dose 3 mg/kg, route oral; conditions: in vivo, read-out: beta t1/2 (converted)
[34] = Plasma protein binding in Beagle dog after 1 hr by LC/MS/MS analysis; format: ADME, cell-free, Canis lupus familiaris; conditions: read-out: PPB (converted)
[35] = Metabolic stability of compound in mouse liver microsomes assessed as half life; format: ADME, Microsome
[36] = Metabolic stability of compound in human liver microsomes assessed as compound remaining at 40 mins; format: ADME, Microsome; conditions: read-out: Stability
[37] = AUC in cynomolgus monkey at 1 mg/kg, po after 6 to 24 hrs by LC-MS/MS analysis; format: ADME, organism-based, Macaca fascicularis; design: dose 1 mg/kg, route oral; conditions: plasma
[38] = AUC in Beagle dog at 3 mg/kg, po after 6 to 24 hrs by LC-MS/MS analysis; format: ADME, organism-based, Canis lupus familiaris; design: dose 3 mg/kg, route oral; conditions: plasma
[39] = Plasma protein binding in human after 1 hr by LC/MS/MS analysis; format: ADME, cell-free; conditions: read-out: PPB (converted)
[40] = Terminal half life in fasted Sprague-Dawley rat at 1 mg/kg, iv after 6 to 24 hrs by LC-MS/MS analysis; format: ADME, organism-based; design: dose 1 mg/kg, route intravenous; conditions: in vivo, read-out: beta t1/2 (converted)
[41] = Oral bioavailability in fasted Sprague-Dawley rat at 5 mg/kg after 6 hrs by LC-MS/MS analysis; format: ADME, organism-based; conditions: in vivo

T1 sequence (Q9Y5N1 whole entry): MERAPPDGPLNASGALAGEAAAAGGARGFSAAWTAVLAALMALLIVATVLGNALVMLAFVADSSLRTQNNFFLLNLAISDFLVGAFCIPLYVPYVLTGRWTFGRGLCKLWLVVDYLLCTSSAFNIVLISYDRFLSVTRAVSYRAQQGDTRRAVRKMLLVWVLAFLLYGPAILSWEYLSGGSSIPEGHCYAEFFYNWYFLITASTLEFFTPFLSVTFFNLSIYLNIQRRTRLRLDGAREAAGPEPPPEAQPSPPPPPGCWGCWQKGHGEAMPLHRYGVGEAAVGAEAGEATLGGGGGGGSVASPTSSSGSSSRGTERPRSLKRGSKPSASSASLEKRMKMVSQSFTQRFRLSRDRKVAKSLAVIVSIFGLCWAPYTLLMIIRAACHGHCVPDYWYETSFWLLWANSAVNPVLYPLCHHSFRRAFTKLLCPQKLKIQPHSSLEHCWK
Sequence of Histamine H3 receptor (Rattus norvegicus, UniProt Q9QYN8) (Q9QYN8 whole entry): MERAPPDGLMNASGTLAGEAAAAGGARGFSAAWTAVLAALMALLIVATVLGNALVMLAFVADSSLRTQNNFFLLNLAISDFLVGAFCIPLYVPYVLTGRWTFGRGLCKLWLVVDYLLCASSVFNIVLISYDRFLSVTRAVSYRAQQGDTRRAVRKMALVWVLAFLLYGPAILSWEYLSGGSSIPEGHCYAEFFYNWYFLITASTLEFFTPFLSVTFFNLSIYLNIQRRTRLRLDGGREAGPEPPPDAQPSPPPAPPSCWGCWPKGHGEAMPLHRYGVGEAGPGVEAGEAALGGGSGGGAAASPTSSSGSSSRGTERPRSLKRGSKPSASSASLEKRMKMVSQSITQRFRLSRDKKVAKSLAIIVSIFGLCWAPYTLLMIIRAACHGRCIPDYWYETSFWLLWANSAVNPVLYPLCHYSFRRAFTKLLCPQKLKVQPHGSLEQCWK

## C[C@@H]1CCCN1CCCOc1ccc(-n2ncccc2=O)cc1
Histamine H3 receptor [1]
  Ki: 82 nM
Histamine H3 receptor [2]
  Ki: 347 nM

## C[C@@H]1CCCN1CCCOc1ccc(-c2ccc(=O)[nH]n2)cc1
Histamine H3 receptor [3]
  Kb: 0.4 nM
[4]
  inhibition: < 11%
[5]
  inhibition: < 11%
[6]
  inhibition: < 11%

## C[C@@H]1CCCN1CCCOc1ccc(-c2ccc(=O)[nH]n2)cc1.Cl [IRDABISANT HYDROCHLORIDE]
[7]
  AUC: 984 ng·h/mL
Brain
  CL: > 98%
Lung
  CL: > 98%
[8]
  clearance: 7.7 mL/min/kg
Spleen
  CL: > 98%
[9]
  half-life: > 0.667 h
[10]
  bioavailability: 22%
Cytochrome P450 2C19
  IC50: > 30000 nM
[11]
  half-life: 2.9 h
[12]
  Cmax: 760 ng/mL
[13]
  fraction unbound at 1 h: 0.61
[14]
  clearance: 42 mL/min/kg
[15]
  bioavailability: 83%
[16]
  half-life: 5 h
Cytochrome P450 1A2
  IC50: > 30000 nM
Kidney
  CL: > 98%
[17]
  remaining at 40 min: > 98%
[18]
  Vd: 3.5 L/kg
[19]
  remaining at 40 min: > 98%
[20]
  fraction unbound: 0.4
[21]
  half-life: 2.9 h
[22]
  Vd: 9.4 L/kg
[23]
  Kp: 2.6
Cytochrome P450 3A4
  IC50: > 30000 nM
[24]
  remaining at 40 min: > 98%
Heart
  CL: > 98%
[25]
  Kp: 2.4
Cytochrome P450 2C9
  IC50: > 30000 nM
Plasma
  CL: > 98%
[26]
  Cmax: 270 ng/mL
[27]
  bioavailability: 83%
[28]
  half-life: > 0.667 h
Cytochrome P450 2D6
  IC50: > 30000 nM
[29]
  Vd: 3.8 L/kg
[30]
  clearance: 13.2 mL/min/kg
Liver
  CL: > 98%
[31]
  half-life: > 0.667 h
[32]
  half-life: 5.4 h
Canis familiaris
  Cmax: 230 ng/mL
[33]
  half-life: 2.7 h
[34]
  fraction unbound at 1 h: 0.68
[35]
  half-life: > 0.667 h
[36]
  remaining at 40 min: > 98%
[37]
  AUC: 1920 ng·h/mL
[38]
  AUC: 1190 ng·h/mL
[39]
  fraction unbound at 1 h: 0.56
[40]
  half-life: 2.6 h

## Cn1nc(-c2ccc(OCCCN3CCC[C@@H]3CO)cc2)ccc1=O
Histamine H3 receptor [2]
  Ki: 427 nM

## Cn1nc(-c2ccc(OCCCN3CCCCC3)cc2)ccc1=O
Histamine H3 receptor [1]
  Ki: 21 nM
[14]
  clearance: 50 mL/min/kg
[41]
  bioavailability: 22%
Histamine H3 receptor [2]
  Ki: 106 nM
[23]
  Kp: 5.3
[40]
  half-life: 1.2 h
